A value given as a limit tells only on which side of the number the result lay.

As for `O=C1c2ccccc2CN1C1CCN(c2ccc(Cc3ccccc3)cc2)CC1`, the melting point (usually the temperature, or range, at which the solid turns liquid) was 151 to 155 °C.
For `CC(=O)NC[C@H]1CN(c2ccc(C3=CCCN(C(=O)OC(C)(C)C)CC3)c(F)c2)C(=O)O1` the value was 164 to 165 °C; for `CC(C)C(NC(=O)Cn1cccc(NC(=O)Oc2ccc(Cl)cc2)c1=O)C(=O)C(F)(F)F` (configuration not stated), 137 to 139 °C.
`CC1(C)CCC(C)(C)c2cc(C=O)c(F)cc21` registered a melting point of 119 to 120 °C.
Turning to `NC(=O)c1c(N)sc2c1CCC1(C2)OCCO1`, the melting point lay in the range of 157 to 158 °C.
`Cc1noc(C)c1COc1cc(-n2c(=O)cc(C(F)(F)F)n(C)c2=O)c(F)cc1Cl` displayed a melting point of 120 to 123 °C.
`Cc1cccc(COc2cccc(OCc3cccc(Cl)n3)c2)c1C(=O)O`: the melting point lay in the range of 97 to 98 °C.
For the compound `COc1cc(C#N)ccc1OCCCBr`, the melting point was 99 to 101 °C.
Take `CCCN(CCC)C1Cc2c[nH]c3ccc(C(=O)CC)c(c23)C1` (configuration not stated): the melting point was 149 to 150 °C.
Then `CN(Cc1ccccc1)c1cc(Cl)c(C=O)c(Cl)c1`, with 66 to 70 °C; and `COc1ccc(C2(C#N)CC2)cc1OC1CCCC1`, with 80.4 °C.
`O=c1[nH]c2sccc2c2c([N+](=O)[O-])cccc12` registered a melting point of 255 to 258 °C.
`COc1ccc(-n2nnc(-c3ccc(F)cc3F)c2N)cc1` showed a melting point of 152 to 156 °C.
`CCCCC(CC(=O)Nc1cc(C(N)=O)ccc1C(C)(C)C)c1cc(Cl)c(OC)cc1OC` (configuration not stated) registered a melting point of 212 to 214 °C.
`CC(O)c1cc(-c2ccc(Cl)cc2)no1` (configuration not stated) came in with a melting point of 141 to 143 °C.
The compound `COC(=O)c1cc(OC)c2ccccc2c1OC` returned a melting point of 48 to 50 °C.
Then `O=C(O)C(Cc1ccc(OCCN2c3ccccc3Oc3ccccc32)cc1)Oc1ccccc1` (configuration not stated), with 119 to 120 °C; and `Cc1ccnc2c1C(=O)CC(c1cc(Cl)sc1Cl)C2` (configuration not stated), with 130 to 131 °C; and `Cc1ccnc(NCCSCc2nc[nH]c2C)c1C(=O)O`, with 143 °C.
On to `O=C(NCC12CC3CC(CC(C3)C1)C2)c1cc([N+](=O)[O-])ccc1Cl`, for which the melting point was found to be 178 °C.
Consider `C[C@@H]1OCCN(c2cc(N3CCOCC3)nc(-n3c(N)nc4ccccc43)n2)[C@@H]1C` (relative stereo), for which the melting point was 118 to 123 °C.
As to `O=c1c2cc(F)c(N3CCCC3)nc2n(-c2cccc(C(F)(F)F)c2)c(=O)n1OCc1ccccc1`, the melting point is over 250 °C.
`CN(C)c1nc(N)nc2c1ncn2C1C=CC(CO)C1` (configuration not stated) came in with a melting point of 173 to 174 °C.
In turn, `Cc1nc(Cl)c2c(C)c(C)n(-c3c(Br)cc(C(F)(F)F)cc3Br)c2n1` returned a melting point of 202 to 204 °C.
For `COC(=O)C(=NO)c1nc2cc(C)ccc2oc1=O` the value was 176 to 177 °C.
Regarding `Cc1nc(N2CCN(Cc3ccc(C(=O)N4CCCCC4)cc3)C2=O)sc1-c1ccn[nH]1`, the melting point was 156 to 157 °C.
In turn, `Nc1cc(Cl)nn1-c1c(Cl)cc(C(F)(F)F)cc1Cl` displayed a melting point of 128 to 129 °C.
For `CC1(C)Oc2ccc(CNc3ccc(Cl)cc3)cc2OC1=O` the value was 97 to 98 °C; for `Nc1nc(/C(=N/OC2(C(=O)OCc3ccc([N+](=O)[O-])cc3)CCCCC2)C(=O)O)cs1`, 184 to 185 °C; for `CC(C)NS(=O)(=O)c1cc(Br)c(N)c(Br)c1`, 181 to 183 °C.
Then `CC(=O)Nc1nc(C=O)c(Cc2ccccc2)s1`, with 191 to 192 °C; and `O=C(c1cncnc1)c1ccc(Cl)cc1Cl`, with 75 to 78 °C.
In turn, `Cc1ccccc1-n1c(-c2sc(NC(=O)c3ccccc3)nc2-c2ccccc2)nc2ccccc2c1=O` gave a melting point of over 275 °C.
`Cc1c(Cl)cc(C(C)(C)C)c(O)c1C(=O)Oc1ccccc1` showed a melting point of 68 to 69 °C.
`CCNc1cc2c(cc1Cl)CCN(C)C[C@@H]2c1ccccc1` yielded a melting point of 120 to 121 °C.
The compound `CC(C)Cc1ccc(-c2ccccc2C(C)C(=O)O)cc1` (configuration not stated) returned a melting point of 76 to 77 °C.
Consider `CS(=O)(=O)c1ccc(C(=O)c2cc(-c3ccc(S(C)(=O)=O)cc3)c(N3CCOCC3)s2)cc1`, for which the melting point is 190 °C.
Turning to `O=C(CC1(C=NO)OCCO1)OCc1ccccc1`, the melting point was found to be 52 °C.
`COc1cc2c(cc1OC)S(=O)c1ccc(Cl)cc1C(N1CCN(C)CC1)C2` (configuration not stated) displayed a melting point of 178 to 179 °C.
Then `O=C(O)c1cc(C(F)(F)F)cc(Cl)c1-n1cnc(C(F)(F)F)cc1=O`, with 225 °C; and `CS(=O)(=O)c1ccc(-c2cnn(CC(F)(F)F)c(=O)c2Oc2ccc(F)cc2)cc1`, with 161 to 164 °C.
`COC(=S)c1ccnc(C)n1` came in with a melting point of 68 °C.
In turn, `CCOC(=O)c1ccc(OCc2cnccn2)cc1` registered a melting point of 76.1 °C.
As for `Nc1ccc(Oc2ccccc2Oc2ccc(N)c(O)c2)cc1O`, the melting point was over 180 °C.
Then `CCSc1nnc(-c2ccc(OC)cc2)c(-c2ccc(OC)cc2)n1`, with 118 to 120 °C; and `CC(C)(C)c1ccc(S(=O)(=O)C[N+](=O)[O-])cc1`, with 90 to 91 °C.
Compound `CCc1cc(=O)n(-c2cc(OC(C)C)c(Cl)cc2F)c(=O)n1C` returned a melting point of 72 to 74 °C.
Regarding `COc1ccc(Nc2nc(Cl)nc(NCCCO)n2)cc1`, the melting point fell in the range of 155 to 159 °C.
The compound `COC(=O)CCCC(=O)c1ccccc1C=CBr` had a melting point of 52 to 55 °C.
Compound `CCCCCCCCCCCCCCCCC(N)CO` (configuration not stated) returned a melting point of 80.8 to 81.9 °C.
Turning to `CN(C)Cn1cnc2c1c(=O)n(C)c(=O)n2C`, the melting point lay in the range of 121 to 123 °C.
`Cc1c(OCc2ccccc2)ccc2cncn12` came in with a melting point of 52 to 54 °C.
`N#CC1=C(C2CC2)Nc2n[nH]cc2C1c1ccccc1Br` (configuration not stated): the melting point was over 250 °C.
On to `CCCCCCCCCCNC(=O)[C@@H]1C[C@H]1c1ccc([N+](=O)[O-])cc1` (relative stereo), for which the melting point was in the range of 127 to 129 °C.
The compound `NC1=NC(c2ccc(OC(F)(F)F)cc2)(c2cccc(-c3cccnc3F)c2)C2=NOCCN12` (configuration not stated) showed a melting point of 102 to 117 °C.
On to `Brc1cc(C#Cc2ccccc2)c(Br)cc1C#Cc1ccccc1`, for which the melting point fell in the range of 155 to 158 °C.
Turning to `CN(C)c1nc2c(NCc3ccccc3)ncnc2n1C1OC(CO)C(O)C1O` (configuration not stated), the melting point was 152 to 156 °C.
For the compound `O=C(Nc1nc2cnccc2s1)Oc1ccccc1`, the melting point is over 290 °C.
In turn, `Nc1nc2c(c(=O)[nH]1)S[C@H](CCc1ccc(C(=O)O)s1)CN2` returned a melting point of 283 to 285 °C.
Compound `Nc1ccc(C(=O)OCCOC(=O)CC[C@@H](C(=O)O)n2c3ccccc3c3ccccc32)cc1` showed a melting point of 65 °C.
As for `O=C(NCCO)/C(=C/c1ccc(OC2CC2)cc1)NC(=O)c1ccc(OCCc2ccc(Cl)cc2)cc1`, the melting point lay in the range of 66 to 69 °C.
`CCN1CCc2c(NC(C)=O)ccc(Br)c2C1` returned a melting point of 168 to 169 °C.
Turning to `Nc1ccc(OCc2ccccn2)nn1`, the melting point was 114 to 115 °C.
On to `COc1cc(OC)c(C)c(C(=O)NCC23CC4CC(CC(C4)C2)C3)c1`, for which the melting point lay in the range of 173 to 175 °C.
`CCCC(c1cc(C(=O)O)ccc1OCc1ccc(Br)cc1)n1ccnc1` (configuration not stated) yielded a melting point of 187 to 189 °C.
In turn, `COc1cccc(C(=O)Nc2ccc(CN3C(=O)[C@H]4CCC[C@H]4N(C(=O)CN4C(=O)c5ccccc5C4=O)c4ccccc43)cc2)c1` (relative stereo) had a melting point of 250 to 251 °C.
The compound `Nc1cc(C(=O)Cn2c(-c3nonc3N)nc3ccccc32)ccc1Cl` showed a melting point of 228 to 230 °C.
Then `O=C1NC(=O)C(Cc2ccc3oc(Cc4ccc(O)cc4)nc3c2)S1` (configuration not stated), with 201 to 204 °C; and `COc1ccc(P(=O)(c2ccccc2)c2ccccc2)cc1OC`, with 154 to 156 °C.
Compound `CC(C)(C)C(=O)Oc1cccc2c1C(=O)c1c(OC(=O)C(C)(C)C)cccc1C2C(=O)c1ccccc1` returned a melting point of 191 °C.
Consider `COc1ccc(-c2nc3cc4c(cc3[nH]2)C(C)(C)CC(=O)N4)cc1`, for which the melting point lay within 235 to 238 °C.
Compound `CCOC(=O)C1=C(C)NC(C(F)F)=C(C(=O)OCC)C1c1cccc([N+](=O)[O-])c1` (configuration not stated) came in with a melting point of 148 to 149 °C.
Then `CCCOc1ccc(S(=O)(=O)N(C)C)cc1C1=NC(=O)C2=NC=NC2=N1`, with 268 to 269 °C.
In the case of `COc1c(F)cc2[nH]c(C)c(CC(=O)OCC[Si](C)(C)C)c2c1F`, the melting point was in the range of 86.9 to 88.7 °C.
Then `COc1ccc2c(c1OC)CCC(NC(=O)C(F)(F)F)C2=O` (configuration not stated), with 166 to 167 °C.
In turn, `Cc1cnc(NC2CCC(CCN3CCN(c4ccccc4)CC3)CC2)nc1` (configuration not stated) came in with a melting point of 190 °C.
`COc1cc(CCCN2CCc3cc(OC)c(OC)cc3C2)ccc1NC(=O)c1cccc2c(=O)c3c(OC)ccc(OC)c3[nH]c12` came in with a melting point of 140 °C.
With `CC(C)(C)[Si](C)(C)Oc1ccc(CCNc2ncnc3nccnc23)cc1`, the melting point lay in the range of 164 to 165 °C.
For `Cc1cccc(S(=O)(=O)NC(=O)NCCCCCCNC(=O)NS(=O)(=O)c2cccc(Cl)c2)c1` the value was 187 to 189 °C.
For `CCN(CC)C(=O)n1ccc(S(=O)(=O)c2c(F)cccc2F)n1`, the melting point fell in the range of 83 to 83.5 °C.
`CN1CCN(c2ccnc3c(NC(=O)c4c(Cl)cccc4Cl)cc(F)cc23)C1=O` displayed a melting point of 268 to 272 °C.
In turn, `CCOC(=O)C1Cc2c(OC)ccc(OC)c2CO1` (configuration not stated) returned a melting point of 59.8 °C.
`COc1ccccc1NC(=O)Nc1nc(Nc2ccccc2-c2ccccc2)nc(N(CCC(=O)O)Cc2ccc(C)cc2)n1` came in with a melting point of 102 °C.
Take `CN1CCN(c2ccc(C3CCC4(CCC4c4ccccc4)C(=O)N3c3ccccc3)cc2)CC1` (configuration not stated): the melting point lay in the range of 166 to 168 °C.
Compound `Cc1nn(C)c2nc(N(CC3CC3)C(=O)C3CC3)c(CN(Cc3cc(C(F)(F)F)cc(C(F)(F)F)c3)c3nnn(C)n3)cc12` yielded a melting point of 120 to 122 °C.
Then `CCOC(=O)c1c(O)c(Br)c(Br)n1-c1ccccc1`, with 144 to 145 °C.
For `COc1ccc(Cn2cc(C(F)(F)F)ccc2=O)cc1` the value was 84.2 to 86.1 °C.

(Values after a melting point compilation (Tetko et al.; mined from patent text by program, amines drawn as free bases though some values may be those of a salt).)
